Assay results as given in patent US12612410B2 (CHILDREN'S HOSPITAL MEDICAL CENTER, priority 2020, dated 2026).

Experiments:
Assay type in all cases: biochemical
Conditions in all cases: isolated kinase, 33P-ATP
IRAK4 = target: T1, IRAK4 (Homo sapiens, UniProt Q9NWZ3); assay: RBC HotSpot Kinase Assay, IRAK4; parameters: purchased Reaction Biology (RBC), HotSpot kinase assay
T1 sequence (Q9NWZ3 1-460): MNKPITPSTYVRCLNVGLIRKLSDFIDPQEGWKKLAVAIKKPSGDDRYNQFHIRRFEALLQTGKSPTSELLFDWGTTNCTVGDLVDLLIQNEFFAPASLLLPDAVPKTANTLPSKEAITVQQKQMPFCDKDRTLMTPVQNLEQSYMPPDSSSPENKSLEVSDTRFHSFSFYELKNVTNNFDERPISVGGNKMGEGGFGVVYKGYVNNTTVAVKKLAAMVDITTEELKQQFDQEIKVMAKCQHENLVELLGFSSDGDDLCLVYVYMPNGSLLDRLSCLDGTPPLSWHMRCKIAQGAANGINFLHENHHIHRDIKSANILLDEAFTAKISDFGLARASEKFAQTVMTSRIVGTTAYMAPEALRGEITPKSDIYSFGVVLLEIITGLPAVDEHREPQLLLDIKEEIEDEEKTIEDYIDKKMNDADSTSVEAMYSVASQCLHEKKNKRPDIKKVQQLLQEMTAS
Description: (§1) This assay uses the isolated kinase enzyme. This assay is very useful for determining competition of the inhibitor for ATP and/or substrates and for measuring the kinetics of enzyme inhibition. […] Unlike kinase binding assays that measure competition for ATP, the HotSpot Kinase Assay is a functional assay that measures catalytic activity; as such it measures relative functional potency regardless of the mechanism of enzyme inhibition. This assay uses the form of the various enzymes that are easiest to express, which may not necessarily be the form of the enzyme that exist in the cell. (Sometimes the carboxy terminus has been truncated to aid in expression, or, if it is a receptor kinase, the enzyme itself is isolated from the other parts of the receptor that are involved in regulating kinase activity.)
(§2) The reagent used was as follows: Base Reaction buffer; 20 mM Hepes (pH 7.5), 10 mM MgCl2, 1 mM EGTA, 0.01% Brij35, 0.02 mg/ml BSA, 0.1 mM Na3VO4, 2 mM DTT, 1% DMSO. Required cofactors were added individually to each kinase reaction.
(§3) The reaction procedure was as follows: • 1) Substrates were prepared in freshly prepared Reaction Buffer. • 2) Any required cofactors were delivered to the substrate solution above. • 3) Kinase was delivered into the substrate solution and gently mixed. • 4) Compounds were delivered in 100% DMSO into the kinase reaction mixture by Acoustic technology (Echo550; nanoliter range), followed by incubation for 20 min at room temp. • 5)^33P-ATP was delivered into the reaction mixture to initiate the reaction. • 6) The mixture was incubated for 2 hours at room temperature. • 7) Kinase activity was detected by P81 filter-binding method.

IRAK1 = target: T2, IRAK1 (Homo sapiens, UniProt P51617); assay: RBC HotSpot Kinase Assay, IRAK1
T2 construct: purchased Reaction Biology (RBC), HotSpot kinase assay
Description: as §1, §2, §3

FLT3 = target: T3, FLT3 (Homo sapiens, UniProt P36888); assay: RBC HotSpot Kinase Assay, FLT3; parameters: purchased Reaction Biology (RBC), HotSpot kinase assay
T3 sequence (P36888 27-993): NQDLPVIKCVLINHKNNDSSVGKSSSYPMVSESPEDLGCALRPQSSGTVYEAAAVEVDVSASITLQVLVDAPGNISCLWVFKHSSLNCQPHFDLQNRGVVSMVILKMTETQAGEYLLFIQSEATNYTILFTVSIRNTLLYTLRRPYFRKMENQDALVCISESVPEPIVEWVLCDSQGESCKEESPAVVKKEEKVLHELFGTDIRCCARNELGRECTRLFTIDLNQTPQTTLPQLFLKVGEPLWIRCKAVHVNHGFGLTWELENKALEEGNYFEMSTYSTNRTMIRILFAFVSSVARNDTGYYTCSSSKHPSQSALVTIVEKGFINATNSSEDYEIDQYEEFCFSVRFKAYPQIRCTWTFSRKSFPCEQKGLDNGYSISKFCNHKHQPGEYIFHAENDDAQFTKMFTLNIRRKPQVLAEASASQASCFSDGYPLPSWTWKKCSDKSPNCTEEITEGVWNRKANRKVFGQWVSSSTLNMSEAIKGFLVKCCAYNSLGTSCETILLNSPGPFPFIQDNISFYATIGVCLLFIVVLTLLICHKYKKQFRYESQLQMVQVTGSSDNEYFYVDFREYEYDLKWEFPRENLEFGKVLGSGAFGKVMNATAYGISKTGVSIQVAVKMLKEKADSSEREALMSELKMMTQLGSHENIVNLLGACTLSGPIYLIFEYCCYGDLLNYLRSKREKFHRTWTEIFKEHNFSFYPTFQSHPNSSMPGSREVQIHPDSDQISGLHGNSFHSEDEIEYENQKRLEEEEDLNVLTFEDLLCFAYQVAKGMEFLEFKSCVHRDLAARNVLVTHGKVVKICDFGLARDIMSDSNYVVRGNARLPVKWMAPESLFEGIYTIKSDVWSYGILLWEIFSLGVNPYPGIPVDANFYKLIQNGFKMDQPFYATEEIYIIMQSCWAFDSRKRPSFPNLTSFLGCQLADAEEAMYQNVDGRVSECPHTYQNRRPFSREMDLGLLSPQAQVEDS
Description: as §1, §2, §3

T2 sequence (P51617 whole entry): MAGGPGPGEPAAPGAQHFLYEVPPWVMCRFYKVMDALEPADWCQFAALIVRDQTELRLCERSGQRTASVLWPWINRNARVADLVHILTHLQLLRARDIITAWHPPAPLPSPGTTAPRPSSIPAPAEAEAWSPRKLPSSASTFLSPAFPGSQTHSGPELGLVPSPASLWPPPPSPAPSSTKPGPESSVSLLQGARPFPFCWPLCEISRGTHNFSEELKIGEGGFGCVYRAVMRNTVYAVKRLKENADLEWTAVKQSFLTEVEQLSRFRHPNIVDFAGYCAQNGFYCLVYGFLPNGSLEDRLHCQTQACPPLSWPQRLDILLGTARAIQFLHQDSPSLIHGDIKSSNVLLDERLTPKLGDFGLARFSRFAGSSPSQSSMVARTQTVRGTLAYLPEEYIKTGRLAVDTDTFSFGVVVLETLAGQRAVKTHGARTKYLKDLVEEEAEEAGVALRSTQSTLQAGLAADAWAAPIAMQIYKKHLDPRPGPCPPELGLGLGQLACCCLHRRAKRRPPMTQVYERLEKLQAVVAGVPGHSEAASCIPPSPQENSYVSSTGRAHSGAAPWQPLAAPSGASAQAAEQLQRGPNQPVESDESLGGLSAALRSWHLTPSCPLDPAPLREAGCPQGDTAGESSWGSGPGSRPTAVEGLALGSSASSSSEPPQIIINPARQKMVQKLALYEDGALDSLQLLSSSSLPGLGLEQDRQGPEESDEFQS

IC50 (IRAK4)	IC50 (IRAK1)	IC50 (FLT3)	SMILES
2 nM	451 nM	0.9 nM	CC1(c2cn3c(-c4cccc(N[C@H]5CNC[C@@H]5C(F)(F)F)n4)cnc3cn2)CC1 [Compound 4, 6-(6-(1-methylcyclopropyl)imidazo[1,2-a]pyrazin-3-yl)-N-((3R,4S)-4-(trifluoromethyl)pyrrolidin-3-yl)pyridin-2-amine]
86 nM	926 nM	0.6 nM	CC1(c2cn3c(-c4cccc(N[C@H]5CCNC[C@@H]5F)n4)cnc3cn2)CC1 [Compound 6, N-((3S,4S)-3-fluoropiperidin-4-yl)-6-(6-(1-methylcyclopropyl)imidazo[1,2-a]pyrazin-3-yl)pyridin-2-amine]
1020 nM	3280 nM	1 nM	C[C@H]1C[C@@H](Nc2cccc(-c3cnc4cnc(C5(C)CC5)cn34)n2)CCN1 [Compound 7, 6-(6-(1-methylcyclopropyl)imidazo[1,2-a]pyrazin-3-yl)-N-((2S,4S)-2-methylpiperidin-4-yl)pyridin-2-amine]
1020 nM	736 nM	3 nM	C[C@@H]1CNC[C@H](Nc2cccc(-c3cnc4cnc(C5(C(F)(F)F)CC5)cn34)n2)C1 [Compound 15, N-((3R,5S)-5-methylpiperidin-3-yl)-6-(6-(1-(trifluoromethyl)cyclopropyl)imidazo[1,2-a]pyrazin-3-yl)pyridin-2-amine]
2 nM	150 nM	< 0.5 nM	FC(F)c1cn2c(-c3cccc(N[C@H]4CNCC45CC5)n3)cnc2cn1 [Compound 20, (R)-N-(6-(6-(difluoromethyl)imidazo[1,2-a]pyrazin-3-yl)pyridin-2-yl)-5-azaspiro[2.4]heptan-7-amine]
669 nM	474 nM	1 nM	C[C@H]1C[C@@H](Nc2cccc(-c3cnc4cnc(C(F)F)cn34)n2)CCN1 [Compound 22, 6-(6-(difluoromethyl)imidazo[1,2-a]pyrazin-3-yl)-N-((2S,4S)-2-methylpiperidin-4-yl)pyridin-2-amine]
7 nM	185 nM	< 0.5 nM	FC(F)c1cn2c(-c3cccc(N[C@H]4CNCC4(F)F)n3)cnc2cn1 [Compound 23, 6-(6-(difluoromethyl)imidazo[1,2-a]pyrazin-3-yl)-N-(4,4-difluoropyrrolidin-3-yl)pyridin-2-amine]
2 nM	236 nM	< 0.5 nM	CC1(C)CCNCC1Nc1cccc(-c2cnc3cnc(C(F)F)cn23)n1 (stereo not drawn) [Compound 24, 6-(6-(difluoromethyl)imidazo[1,2-a]pyrazin-3-yl)-N-(4,4-dimethylpiperidin-3-yl)pyridin-2-amine]
0.7 nM	103 nM	< 0.5 nM	FC(F)c1cn2c(-c3cccc(N[C@H]4CNCCC4(F)F)n3)cnc2cn1 [Compound 26, (S)-6-(6-(difluoromethyl)imidazo[1,2-a]pyrazin-3-yl)-N-(4,4-difluoropiperidin-3-yl)pyridin-2-amine]
0.9 nM	116 nM	0.8 nM	CC(C)(O)c1cn2c(-c3cccc(N[C@@H]4CCNC4)n3)cnc2cn1 [Compound 27, (R)-2-(3-(6-(pyrrolidin-3-ylamino)pyridin-2-yl)imidazo[1,2-a]pyrazin-6-yl)propan-2-ol]
3 nM	385 nM	< 0.5 nM	CC(C)(O)c1cn2c(-c3cccc(N[C@H]4CNC[C@@H](F)C4)n3)cnc2cn1 [Compound 32, 2-(3-(6-(((3R,5S)-5-fluoropiperidin-3-yl)amino)pyridin-2-yl)imidazo[1,2-a]pyrazin-6-yl)propan-2-ol]
11 nM	273 nM	< 0.5 nM	FC(F)(F)COc1cn2c(-c3cccc(N[C@@H]4CCCNC4)n3)cnc2cn1 [Compound 37, (R)-N-(piperidin-3-yl)-6-(6-(2,2,2-trifluoroethoxy)imidazo[1,2-a]pyrazin-3-yl)pyridin-2-amine]
8 nM	301 nM	< 0.5 nM	FC(F)(F)COc1cn2c(-c3cccc(N[C@H]4CNC[C@@H]4C(F)(F)F)n3)cnc2cn1 [Compound 39, 6-(6-(2,2,2-trifluoroethoxy)imidazo[1,2-a]pyrazin-3-yl)-N-((3R,4S)-4-(trifluoromethyl)pyrrolidin-3-yl)pyridin-2-amine]
110 nM	142 nM	< 0.5 nM	F[C@H]1CNCC[C@@H]1Nc1cccc(-c2cnc3cnc(OCC(F)(F)F)cn23)n1 [Compound 41, N-((3S,4S)-3-fluoropiperidin-4-yl)-6-(6-(2,2,2-trifluoroethoxy)imidazo[1,2-a]pyrazin-3-yl)pyridin-2-amine]
339 nM	413 nM	0.6 nM	C[C@H]1C[C@@H](Nc2cccc(-c3cnc4cnc(OCC(F)(F)F)cn34)n2)CCN1 [Compound 42, N-((2S,4S)-2-methylpiperidin-4-yl)-6-(6-(2,2,2-trifluoroethoxy)imidazo[1,2-a]pyrazin-3-yl)pyridin-2-amine]
37 nM	4280 nM	< 0.5 nM	FC(F)n1cc(-c2cn3c(-c4cccc(N[C@@H]5CCCNC5)n4)cnc3cn2)cn1 [Compound 44, (R)-6-(6-(1-(difluoromethyl)-1H-pyrazol-4-yl)imidazo[1,2-a]pyrazin-3-yl)-N-(piperidin-3-yl)pyridin-2-amine]
12 nM	1990 nM	< 0.5 nM	c1cc(N[C@@H]2CCCNC2)nc(-c2cnc3cnc(-c4cnn(C5CC5)c4)cn23)c1 [Compound 45, (R)-6-(6-(1-cyclopropyl-1H-pyrazol-4-yl)imidazo[1,2-a]pyrazin-3-yl)-N-(piperidin-3-yl)pyridin-2-amine]
8 nM	3640 nM	< 0.5 nM	CC(C)(O)Cn1cc(-c2cn3c(-c4cccc(N[C@@H]5CCCNC5)n4)cnc3cn2)cn1 [Compound 46, (R)-2-methyl-1-(4-(3-(6-(piperidin-3-ylamino)pyridin-2-yl)imidazo[1,2-a]pyrazin-6-yl)-1H-pyrazol-1-yl)propan-2-ol]
7 nM	154 nM	< 0.5 nM	c1cc(N[C@@H]2CCCNC2)nc(-c2cnc3cnc(-c4cnn5ccccc45)cn23)c1 [Compound 47]
12 nM	1250 nM	0.6 nM	FC(F)n1cc(-c2cn3c(-c4cccc(N[C@H]5CNC[C@@H]5F)n4)cnc3cn2)cn1 [Compound 53, 6-(6-(1-(difluoromethyl)-1H-pyrazol-4-yl)imidazo[1,2-a]pyrazin-3-yl)-N-((3S,4S)-4-fluoropyrrolidin-3-yl)pyridin-2-amine]
